Results on 16 compounds are retold here after publication PMC6804419, “Synthesis and Inhibitory Effect of Some Indole‐Pyrimidine Based Hybrid Heterocycles on α‐Glucosidase and α‐Amylase as Potential Hypoglycemic Agents” (ChemistryOpen, 2019).

As a reminder, the IC50 is the concentration that inhibits the measured activity by half. Broadly, the melting point is the temperature, or range, at which the solid turns liquid.

Data set [1] addresses T1, α-glucosidase type 1 from baker's yeast (Saccharomyces cerevisiae, UniProt P53341).
T1 construct: purchased Sigma-Aldrich G5003
Nature of the data set: α-Glucosidase inhibition assay. The data set is classed as biochemical. The source says:
(§1) α‐glucosidase type 1 from baker‘s yeast (G5003; Sigma‐Aldrich, St. Louis, MO, USA), p‐nitrophenyl α‐D‐glucopyranoside (N1377, Sigma‐Aldrich), sodiumphosphatemonobasic (S3139, Sigma‐Aldrich), sodiumphosphatedibasic (S5136, Sigma‐Aldrich), andacarbose (A8980, Sigma‐Aldrich), DMSO (Dimethylsulfoxide), α‐amylase from Aspergillus oryzae (Sigma Aldrich), starch, DNS (3, 5‐dinitrosalicylic acid), sodiumpotassiumtartratetetrahydrate.
Concentration of α‐glucosidase and substrate. Sodium phosphate buffer (0.1 M) was adjusted by 0.1 N HCl to pH 7.0 with a pH meter (Thermo Fisher Scientific Inc., Waltham, MA, USA). p‐Nitrophenyl α‐D‐glucopyranoside (10 mM) and α‐glucosidase solutions (1 U/ml) were solubilized in 0.1 M sodium phosphate buffer (pH 7.0). All the reagents were manufactured shortly before use and warmed to 37 °C in a water bath. Sodium phosphate buffer (0.1 M, 158 μl per well) was added to a 96‐well plate. α‐Glucosidase (20 μl) and 2 μl of sample were added to 20 μl of p‐nitrophenyl α‐D‐glucopyranoside. In the 200‐μl final reaction volume (0.02 U/well, 0.1 U/ml) the substrate concentration was adjusted to […]. The background signal due to the sample color was measured at 405 nm with the PerkinElmer Wallac Victor3 spectrophotometer (PerkinElmer, Waltham, MA, USA) prior to adding the enzyme. Immediately following α‐glucosidase addition, absorbance was measured at 405 nm 8 times at 1‐min intervals.16
(§2) The inhibitory concentration 50 % (IC50) values were determined from the plots of percent inhibition versus log inhibitor concentration and calculated by logarithmic regression analysis from the mean inhibitory values.

Data set [2] deals with T2, α-amylase from Aspergillus oryzae (Aspergillus oryzae, UniProt P0C1B3).
T2 construct: purchased Sigma Aldrich
Nature of the data set: α-Amylase assay. The data set is classed as biochemical. As to the method: as §1
Briefly, 250 μL (0.4 mg/mL) was preincubated with 250 μL of α‐amylase solution for 10 min at 25 °C in one set of tubes. In another set of tubes α‐amylase was preincubated with 250 μL of phosphate buffer (pH 6.9). 250 μL of starch solution at increasing concentrations (0.2–1 % (w/v)) was added to both sets of reaction mixtures to start the reaction. The mixture was then incubated for 10 min at 25 °C and then boiled for 15 min after the addition of 250 μL of DNS to stop the reaction. The amount of reducing sugars released was determined spectrophotometrically using a maltose standard curve and converted to reaction velocities.
as §2

T1 sequence (P53341 whole entry): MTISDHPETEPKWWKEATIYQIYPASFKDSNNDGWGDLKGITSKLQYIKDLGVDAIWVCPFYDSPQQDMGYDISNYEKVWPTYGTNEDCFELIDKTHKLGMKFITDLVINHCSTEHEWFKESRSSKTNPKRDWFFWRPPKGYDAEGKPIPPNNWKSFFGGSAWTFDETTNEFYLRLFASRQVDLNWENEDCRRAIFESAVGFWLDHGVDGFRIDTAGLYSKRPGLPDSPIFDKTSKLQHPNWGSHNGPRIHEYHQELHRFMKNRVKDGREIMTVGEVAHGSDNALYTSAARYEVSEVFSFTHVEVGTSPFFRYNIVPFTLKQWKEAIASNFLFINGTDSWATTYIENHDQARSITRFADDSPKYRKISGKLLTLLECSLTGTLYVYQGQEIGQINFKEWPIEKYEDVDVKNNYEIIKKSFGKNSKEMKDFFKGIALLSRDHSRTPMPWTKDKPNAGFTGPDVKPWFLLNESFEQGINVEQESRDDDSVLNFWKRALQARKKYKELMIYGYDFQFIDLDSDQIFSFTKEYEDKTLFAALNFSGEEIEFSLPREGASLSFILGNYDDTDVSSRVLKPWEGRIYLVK

For `CN1C(=O)C(C(CC(=O)c2cn(C)c3ccccc23)c2ccccc2)C(=O)N(C)C1=O` (centres unmarked) [5a, 1,3‐Dimethyl‐5‐(3‐(1‐methyl‐1H‐indol‐3‐yl)‐3‐oxo‐1‐phenylpropyl)pyrimidine‐2,4,6(1H,3H,5H)‐trione], the melting point lay in the range of 185 to 186 °C. This compound yielded a half-maximal inhibitory concentration (IC50) in data set [1] of 65.14 ± 0.17 µM. Further, the IC50 in data set [2] turned out to be 93.25 ± 0.1 µM.

In the case of `CCn1cc(C(=O)CC(c2ccc(C)cc2)C2C(=O)N(C)C(=O)N(C)C2=O)c2ccccc21` (centres unmarked) [5b], the melting point lay within 155 to 156 °C. The IC50 in data set [1] came out at 53.15 ± 0.12 µM. In data set [2], this compound gave an IC50 of 80.17 ± 0.05 µM.

Regarding `CCn1cc(C(=O)CC(c2ccc(Cl)cc2)C2C(=O)N(C)C(=O)N(C)C2=O)c2ccccc21` (centres unmarked) [5c, 5‐(1‐(4‐Chlorophenyl)‐3‐(1‐ethyl‐1H‐indol‐3‐yl)‐3‐oxopropyl)‐1,3‐dimethylpyrimidine‐2,4,6(1H,3H,5H)‐trione], the melting point was in the range of 166 to 167 °C. In data set [1], this compound yielded an IC50 of 49.75 ± 0.01 µM. The IC50 in data set [2] was determined as 71.24 ± 0.2 µM.

In turn, `CCn1cc(C(=O)CC(c2ccc(Cl)cc2Cl)C2C(=O)N(C)C(=O)N(C)C2=O)c2ccccc21` (centres unmarked) [5d, 5‐(1‐(2,4‐Dichlorophenyl)‐3‐(1‐ethyl‐1H‐indol‐3‐yl)‐3‐oxopropyl)‐1,3‐dimethylpyrimidine‐2,4,6(1H,3H,5H)‐trione] registered a melting point of 149 to 150 °C. Moreover, inhibition in data set [1] was half-maximal at 58.21 ± 0.09 µM (IC50). In addition, in data set [2], the IC50 was found to be 96.42 ± 0.22 µM.

Turning to `CCn1cc(C(=O)CC(c2ccc(OC)cc2)C2C(=O)N(C)C(=O)N(C)C2=O)c2ccccc21` (centres unmarked) [5e, 5‐(3‐(1‐Ethyl‐1H‐indol‐3‐yl)‐1‐(4‐methoxyphenyl)‐3‐oxopropyl)‐1,3‐dimethylpyrimidine‐2,4,6(1H,3H,5H)‐trione], the melting point lay within 128 to 129 °C. This compound displayed an IC50 in data set [1] of 61.4 ± 0.78 µM. This compound had an IC50 in data set [2] of 88.45 ± 0.32 µM.

Compound `CCn1cc(C(=O)CC(c2ccc(Br)cc2)C2C(=O)N(C)C(=O)N(C)C2=O)c2ccccc21` (centres unmarked) [5f, 5‐(1‐(4‐Bromophenyl)‐3‐(1‐ethyl‐1H‐indol‐3‐yl)‐3‐oxopropyl)‐1,3‐dimethylpyrimidine‐2,4,6(1H,3H,5H)‐trione] had a melting point of 159 to 160 °C. This compound also showed an IC50 in data set [1] of 53.15 ± 0.12 µM. In data set [2], the IC50 stood at 78.25 ± 0.1 µM.

In turn, `CCn1cc(C(=O)CC(c2ccc(F)cc2)C2C(=O)N(C)C(=O)N(C)C2=O)c2ccccc21` (centres unmarked) [5g, 5‐(3‐(1‐Ethyl‐1H‐indol‐3‐yl)‐1‐(4‐fluorophenyl)‐3‐oxopropyl)‐1,3‐dimethylpyrimidine‐2,4,6(1H,3H,5H)‐trione] came in with a melting point of 185 to 186 °C. In addition, the IC50 in data set [1] was determined as 69.75 ± 0.01 µM. The compound also returned an IC50 in data set [2] of 86.42 ± 0.22 µM.

As to `CCn1cc(C(=O)CC(c2cccc(F)c2)C2C(=O)N(C)C(=O)N(C)C2=O)c2ccccc21` (centres unmarked) [5h, 5‐(3‐(1‐Ethyl‐1H‐indol‐3‐yl)‐1‐(3‐fluorophenyl)‐3‐oxopropyl)‐1,3‐dimethylpyrimidine‐2,4,6(1H,3H,5H)‐trione], the melting point was in the range of 188 to 189 °C. This compound had an IC50 in data set [1] of 61.1 ± 0.42 µM. The same compound gave an IC50 in data set [2] of 89.45 ± 0.44 µM.

As to `CCn1cc(C(=O)CC(c2cccc(C)c2)C2C(=O)N(C)C(=O)N(C)C2=O)c2ccccc21` (centres unmarked) [5i, 5‐(3‐(1‐Ethyl‐1H‐indol‐3‐yl)‐3‐oxo‐1‐(m–tolyl)propyl)‐1,3‐dimethylpyrimidine‐2,4,6(1H,3H,5H)‐trione], the melting point was in the range of 125 to 126 °C. Besides, the IC50 in data set [1] is 73.15 ± 0.12 µM. For the same compound, 95.25 ± 0.1 µM corresponded to half-maximal inhibition in data set [2] (IC50).

The compound `CCn1cc(C(=O)CC(c2cccc(Br)c2)C2C(=O)N(C)C(=O)N(C)C2=O)c2ccccc21` (centres unmarked) [5j, 5‐(1‐(3‐Bromophenyl)‐3‐(1‐ethyl‐1H‐indol‐3‐yl)‐3‐oxopropyl)‐1,3‐dimethylpyrimidine‐2,4,6(1H,3H,5H)‐trione] had a melting point of 130 to 131 °C. The IC50 in data set [1] was determined as 77.05 ± 0.04 µM. This compound came in with an IC50 in data set [2] of 86.42 ± 0.22 µM.

For `CCn1cc(C(=O)CC(c2ccc(C(F)(F)F)cc2)C2C(=O)N(C)C(=O)N(C)C2=O)c2ccccc21` (centres unmarked) [5k, 5‐(3‐(1‐Ethyl‐1H‐indol‐3‐yl)‐3‐oxo‐1‐(4‐(trifluoromethyl)phenyl)propyl)‐1,3‐dimethylpyrimidine‐2,4,6(1H,3H,5H)‐trione], the melting point is 168 to 169 °C. The same compound yielded an IC50 in data set [1] of 20.5 ± 0.44 µM. The compound further displayed an IC50 in data set [2] of 47.11 ± 0.09 µM.

Turning to `CCn1cc(C(=O)CC(c2cccs2)C2C(=O)N(C)C(=O)N(C)C2=O)c2ccccc21` (centres unmarked) [5l, 5‐(3‐(1‐Ethyl‐1H‐indol‐3‐yl)‐3‐oxo‐1‐(thiophen‐2‐yl)propyl)‐1,3‐dimethylpyrimidine‐2,4,6(1H,3H,5H)‐trione], the melting point lay in the range of 154 to 155 °C. The compound also gave an IC50 in data set [1] of 22.3 ± 0.48 µM. In data set [2], this compound showed an IC50 of 35.4 ± 0.6 µM.

Regarding `CCn1cc(C(=O)CC(c2ccco2)C2C(=O)N(C)C(=O)N(C)C2=O)c2ccccc21` (centres unmarked) [5m, 5‐(3‐(1‐Ethyl‐1H‐indol‐3‐yl)‐1‐(furan‐2‐yl)‐3‐oxopropyl)‐1,3‐dimethylpyrimidine‐2,4,6(1H,3H,5H)‐trione], the melting point was 188 to 189 °C. Moreover, the IC50 in data set [1] is 64.35 ± 0.08 µM. Also, in data set [2], it took 82.15 ± 0.5 µM to reach half-maximal inhibition (IC50).

With `CCn1cc(C(=O)CC(c2cc(OC)c(OC)c(OC)c2)C2C(=O)N(C)C(=O)N(C)C2=O)c2ccccc21` (centres unmarked) [5n, 5‐(3‐(1‐Ethyl‐1H‐indol‐3‐yl)‐3‐oxo‐1‐(3,4,5‐trimethoxyphenyl)propyl)‐1,3‐dimethylpyrimidine‐2,4,6(1H,3H,5H)‐trione], the melting point lay in the range of 170 to 171 °C. Further, the IC50 in data set [1] came to 53.15 ± 0.12 µM. The compound also gave an IC50 in data set [2] of 93.25 ± 0.1 µM.

Consider `CCn1cc(C(=O)CC(c2ccc3ccccc3c2)C2C(=O)N(C)C(=O)N(C)C2=O)c2ccccc21` (centres unmarked) [5o, 5‐(3‐(1‐Ethyl‐1H‐indol‐3‐yl)‐1‐(naphthalen‐2‐yl)‐3‐oxopropyl)‐1,3‐dimethylpyrimidine‐2,4,6(1H,3H,5H)‐trione], for which the results for the IC50 in data set [1] and in data set [2] were 13.02 ± 0.01 µM and 21.7 ± 0.82 µM, respectively.

For `CCn1cc(C(=O)CC(c2ccc([N+](=O)[O-])cc2)C2C(=O)N(C)C(=O)N(C)C2=O)c2ccccc21` (centres unmarked) [5q, 5‐(3‐(1‐Ethyl‐1H‐indol‐3‐yl)‐1‐(4‐nitrophenyl)‐3‐oxopropyl)‐1,3‐ dimethylpyrimidine‐2,4,6(1H,3H,5H)‐trione], the melting point fell in the range of 198 to 199 °C. Moreover, in data set [1], inhibition was half-maximal at 31.12 ± 0.11 µM (IC50). Also, in data set [2], the IC50 turned out to be 63 ± 0.61 µM.
